# Data published in patent US20260092074A1, “Annelated Pyridines as Steroidogenesis Inhibitors, Preparation Method and Use Thereof” (Guangzhou Vinnocent Pharmaceutical Limited, priority 2022, published 2026).
# Experiments:
# human CYP11B1 = target: T1, human CYP11B1 (Homo sapiens, UniProt P15538); assay: Inhibition of hCYP11B1 in transfected V79 cells; type: cell-based; conditions: hamster V79 cells expressing human CYP11B1; substrate 11-deoxycortisol 200 nM
# T1 construct: expressed in transfected cells
# T1 sequence (P15538 25-503): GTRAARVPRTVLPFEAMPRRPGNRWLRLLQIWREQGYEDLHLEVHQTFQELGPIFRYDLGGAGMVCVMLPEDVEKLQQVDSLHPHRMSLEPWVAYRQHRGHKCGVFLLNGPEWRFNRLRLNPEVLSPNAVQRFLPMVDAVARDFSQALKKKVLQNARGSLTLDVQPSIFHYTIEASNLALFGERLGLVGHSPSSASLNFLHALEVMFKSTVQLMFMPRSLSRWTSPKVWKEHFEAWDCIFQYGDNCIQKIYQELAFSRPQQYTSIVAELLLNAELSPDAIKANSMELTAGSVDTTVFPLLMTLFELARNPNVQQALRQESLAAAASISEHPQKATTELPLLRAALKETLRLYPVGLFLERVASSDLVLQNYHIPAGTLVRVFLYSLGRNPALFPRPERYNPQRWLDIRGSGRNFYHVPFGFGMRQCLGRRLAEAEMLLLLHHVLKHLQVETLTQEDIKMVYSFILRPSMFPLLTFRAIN
# Method in brief: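 V79 hamster cells stably expressing human CYP11B1 and rat NADPH-P450 reductase were preincubated with compounds for 2 h. 11-Deoxycortisol (200 nM) was then added as substrate for 30 min before ethyl acetate quench. Substrate and product were quantified by LC-MS/MS or HPLC at 260 nm, and IC50 was derived from percent inhibition.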
# human CYP11B2 = target: T2, human CYP11B2 (Homo sapiens, UniProt P19099); assay: Inhibition of hCYP11B2 in transfected V79 cells; type: cell-based; conditions: hamster V79 cells expressing human CYP11B2; substrate 11-deoxycorticosterone 200 nM
# T2 construct: expressed in transfected cells
# T2 sequence (P19099 25-503): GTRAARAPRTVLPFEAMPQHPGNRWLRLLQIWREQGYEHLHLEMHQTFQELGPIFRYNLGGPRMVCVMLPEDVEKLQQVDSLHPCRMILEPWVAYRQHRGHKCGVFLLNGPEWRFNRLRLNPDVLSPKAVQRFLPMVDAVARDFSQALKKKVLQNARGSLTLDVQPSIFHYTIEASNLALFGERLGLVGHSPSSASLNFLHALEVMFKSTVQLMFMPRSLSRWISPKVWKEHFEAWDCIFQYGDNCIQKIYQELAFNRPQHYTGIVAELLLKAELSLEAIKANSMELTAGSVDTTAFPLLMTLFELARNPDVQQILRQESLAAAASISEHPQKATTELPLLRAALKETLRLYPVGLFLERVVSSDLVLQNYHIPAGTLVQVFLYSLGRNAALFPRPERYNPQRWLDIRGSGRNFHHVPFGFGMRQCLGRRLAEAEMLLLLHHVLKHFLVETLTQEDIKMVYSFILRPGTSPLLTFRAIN
# Method in brief: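 Hamster V79 cells stably co-expressing human CYP11B2 and rat NADPH-P450 reductase were pre-incubated with compounds for 2 hours, then given 200 nM 11-deoxycorticosterone for 30 minutes before ethyl acetate quench. Substrate and product were quantified by LC-MS/MS or HPLC at 260 nm, and IC50 was derived from percent inhibition.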
SMILES,IC50 (human CYP11B1) [nM],IC50 (human CYP11B2) [nM]
"N#Cc1ccc(-c2cncc3c2ccn3S(=O)(=O)c2ccc(F)cc2)cc1 [E6, 4-(1-((4-Fluorophenyl)sulfonyl)-1H-pyrrolo[2,3-c]pyridin-4-yl)benzonitrile]",0.3,0.13
"N#Cc1ccc(-c2cncc3c2ccn3S(=O)(=O)c2ccc(C(F)(F)F)cc2)cc1 [E7, 4-(1-((4-(Trifluoromethyl)phenyl)sulfonyl)-1H-pyrrolo[2,3-c]pyridin-4-yl)benzonitrile]",0.2,0.1
"N#Cc1ccc(-c2cncc3c2ccn3S(=O)(=O)c2ccc(Cl)cc2)cc1 [E8, 4-(1-((4-Chlorophenyl)sulfonyl)-1H-pyrrolo[2,3-c]pyridin-4-yl)benzonitrile]",0.6,0.1
"COc1ccc(S(=O)(=O)n2ccc3c(-c4ccc(C#N)cc4)cncc32)cc1 [E9, 4-(1-((4-Methoxyphenyl)sulfonyl)-1H-pyrrolo[2,3-c]pyridin-4-yl)benzonitrile]",0.3,0.1
"N#Cc1ccc(-c2cncc3c2ccn3S(=O)(=O)c2cccc(C#N)c2)cc1 [E10, 3-((4-(4-Cyanophenyl)-1H-pyrrolo[2,3-c]pyridin-1-yl)sulfonyl)benzonitrile]",0.3,0.6
"N#Cc1ccc(-c2cncc3c2ccn3S(=O)(=O)c2cccc(Cl)c2)cc1 [E11, 4-(1-((3-Chlorophenyl)sulfonyl)-1H-pyrrolo[2,3-c]pyridin-4-yl)benzonitrile]",0.2,0.1
"N#Cc1ccc(-c2cncc3c2ccn3S(=O)(=O)c2cccc(F)c2)cc1 [E12, 4-(1-((3-Fluorophenyl)sulfonyl)-1H-pyrrolo[2,3-c]pyridin-4-yl)benzonitrile]",0.5,0.3
"N#Cc1ccc(-c2cncc3c2ccn3S(=O)(=O)c2cccc([N+](=O)[O-])c2)cc1 [E13, 4-(1-((3-Nitrophenyl)sulfonyl)-1H-pyrrolo[2,3-c]pyridin-4-yl)benzonitrile]",0.5,0.3
"N#Cc1ccc(-c2cncc3c2ccn3S(=O)(=O)c2ccc(C#N)cc2)cc1 [E14, 4-((4-(4-Cyanophenyl)-1H-pyrrolo[2,3-c]pyridin-1-yl)sulfonyl)benzonitrile]",0.5,0.08
"N#Cc1ccc(-c2cncc3c2ccn3S(=O)(=O)c2cccc3ccccc23)cc1 [E15, 4-(1-(Naphthalen-1-ylsulfonyl)-1H-pyrrolo[2,3-c]pyridin-4-yl)benzonitrile]",0.7,0.4
"N#Cc1ccc(-c2cncc3c2ccn3S(=O)(=O)c2ccc3ccccc3c2)cc1 [E16, 4-(1-(Naphthalen-2-ylsulfonyl)-1H-pyrrolo[2,3-c]pyridin-4-yl)benzonitrile]",0.6,0.1
"N#Cc1ccc(-c2cncc3c2ccn3S(=O)(=O)c2cccs2)cc1 [E17, 4-(1-(Thiophen-2-ylsulfonyl)-1H-pyrrolo[2,3-c]pyridin-4-yl)benzonitrile]",0.7,0.1
"N#Cc1ccc(-c2cncc3c2ccn3S(=O)(=O)c2ccc(Cl)nc2)cc1 [E18, 4-(1-((6-Chloropyridin-3-yl)sulfonyl)-1H-pyrrolo[2,3-c]pyridin-4-yl)benzonitrile]",3.8,1.2
"N#Cc1ccc(-c2cncc3c2ccn3C(=O)c2c(F)c(F)c(F)c(F)c2F)cc1 [E19, 4-(1-(Perfluorobenzoyl)-1H-pyrrolo[2,3-c]pyridin-4-yl)benzonitrile]",2.9,2.5
"N#Cc1ccc(-c2cncc3c2ccn3C(=O)c2ccc(C(F)(F)F)cc2)cc1 [E20, 4-(1-(4-(Trifluoromethyl)benzoyl)-1H-pyrrolo[2,3-c]pyridin-4-yl)benzonitrile]",65,0.8
"N#Cc1ccc(-c2cncc3c2ccn3C(=O)c2ccccc2I)cc1 [E21, 4-(1-(2-iodobenzoyl)-1H-pyrrolo[2,3-c]pyridin-4-yl)benzonitrile]",5,4
"N#Cc1ccc(-c2cncc3c2ccn3C(=O)c2cccc([N+](=O)[O-])c2)cc1 [E22, 4-(1-(3-Nitrobenzoyl)-1H-pyrrolo[2,3-c]pyridin-4-yl)benzonitrile]",21,0.6
"N#Cc1ccc(-c2cncc3c2ccn3C(=O)c2cccc(C(F)(F)F)c2)cc1 [E23, 4-(1-(3-(Trifluoromethyl)benzoyl)-1H-pyrrolo[2,3-c]pyridin-4-yl)benzonitrile]",79,0.8

# More lines, now with the values ahead:
IC50 (human CYP11B1) [nM],IC50 (human CYP11B2) [nM],SMILES
82,1.9,"COc1cccc(C(=O)n2ccc3c(-c4ccc(C#N)cc4)cncc32)c1 [E24, 4-(1-(3-Methoxybenzoyl)-1H-pyrrolo[2,3-c]pyridin-4-yl)benzonitrile]"
98,2.1,"COc1ccccc1C(=O)n1ccc2c(-c3ccc(C#N)cc3)cncc21 [E25, 4-(1-(2-Methoxybenzoyl)-1H-pyrrolo[2,3-c]pyridin-4-yl)benzonitrile]"
88,3.9,"N#Cc1ccc(-c2cncc3c2ccn3C(=O)c2ccccc2C(F)(F)F)cc1 [E26, 4-(1-(2-(Trifluoromethyl)benzoyl)-1H-pyrrolo[2,3-c]pyridin-4-yl)benzonitrile]"
73,1.5,"Cc1ccccc1C(=O)n1ccc2c(-c3ccc(C#N)cc3)cncc21 [E27, 4-(1-(2-Methylbenzoyl)-1H-pyrrolo[2,3-c]pyridin-4-yl)benzonitrile]"
17,2.1,"N#Cc1ccc(-c2cncc3c2ccn3C(=O)c2ccccc2F)cc1 [E28, 4-(1-(2-Fluorobenzoyl)-1H-pyrrolo[2,3-c]pyridin-4-yl)benzonitrile]"
9,2.5,"N#Cc1ccc(-c2cncc3c2ccn3C(=O)c2ccccc2[N+](=O)[O-])cc1 [E29, 4-(1-(2-Nitrobenzoyl)-1H-pyrrolo[2,3-c]pyridin-4-yl)benzonitrile]"
11,0.1,"N#Cc1ccc(-c2cncc3c2ccn3C(=O)c2ccc(F)cc2)cc1 [E30, 4-(1-(4-Fluorobenzoyl)-1H-pyrrolo[2,3-c]pyridin-4-yl)benzonitrile]"
635,10,"O=C(c1ccc(F)cc1)n1ccc2c(-c3cc4ccccc4s3)cncc21 [E31, (4-(Benzo[b]thiophen-2-yl)-1H-pyrrolo[2,3-c]pyridin-1-yl)(4-fluorophenyl)methanone]"
269,13,"O=C(c1ccc(F)cc1)n1ccc2c(-c3cc4ccccc4o3)cncc21 [E32, (4-(Benzofuran-2-yl)-1H-pyrrolo[2,3-c]pyridin-1-yl)(4-fluorophenyl)methanone]"
673,32,"O=C(c1ccc(F)cc1)n1ccc2c(-c3ccc4occc4c3)cncc21 [E33, (4-(Benzofuran-5-yl)-1H-pyrrolo[2,3-c]pyridin-1-yl)(4-fluorophenyl)methanone]"
375,5,"O=C(c1ccc(F)cc1)n1ccc2c(-c3cc4ccccc4[nH]3)cncc21 [E34, (4-(1H-Indol-2-yl)-1H-pyrrolo[2,3-c]pyridin-1-yl)(4-fluorophenyl)methanone]"
857,17,"Cn1ncc2ccc(-c3cncc4c3ccn4C(=O)c3ccc(F)cc3)cc21 [E35, (4-Fluorophenyl)(4-(1-methyl-1H-indazol-6-yl)-1H-pyrrolo[2,3-c]pyridin-1-yl)methanone]"
1980,29,"O=C(c1ccc(F)cc1)n1ccc2c(-c3ccc4ncsc4c3)cncc21 [E36, (4-(Benzo[d]thiazol-6-yl)-1H-pyrrolo[2,3-c]pyridin-1-yl)(4-fluorophenyl)methanone]"
455,0.6,"O=C(c1ccc(F)cc1)n1ccc2c(-c3ccc4nccn4c3)cncc21 [E37, (4-Fluorophenyl)(4-(imidazo[1,2-a]pyridin-6-yl)-1H-pyrrolo[2,3-c]pyridin-1-yl)methanone]"
49,8,"O=C(c1ccc(F)cc1)n1ccc2c(-c3ccc4ncoc4c3)cncc21 [E38, (4-(Benzo[d]oxazol-6-yl)-1H-pyrrolo[2,3-c]pyridin-1-yl)(4-fluorophenyl)methanone]"
